Data: patent US10350210B2, “EGFR and ALK dual inhibitor” (PRECEDO PHARMACEUTICALS CO., LTD, priority 2015, dated 2019)

What was measured:
BaF3-FL-EGFR-T790M-L858R = test: Cell growth (Cell Titer-Glo viability), BaF3-FL-EGFR-T790M-L858R; type: cell-based; details: Mus musculus; BaF3-FL-EGFR-T790M-L858R (EGFR T790M/L858R mutant kinase), 72 hrs
Method: By testing the effect of the novel kinase inhibitors on the proliferation of cancer cells, the selectivity of the compounds of the present disclosure in inhibiting the proliferation of cancer cells was further assessed. […]
The number of viable cells was determined quantitatively by a microplate reader using Cell Titer-Glo® (Promega, US) chemiluminescence cell viability assay kit.

HCC827 = test: Growth of cancer cells (Cell Titer-Glo viability), HCC827; type: cell-based; details: Homo sapiens; HCC827 (mutant EGFR del19), 72 hrs
Procedure, shortened: (§1)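 Mouse BaF3 cells retrovirally transduced with human kinase fused to N-terminal TEL fragment, then IL-3 withdrawn so proliferation depends on the transgene. HCC827 carries EGFR del19 and NCI-H3255 EGFR L858R. Viable cells were quantified by CellTiter-Glo chemiluminescence on a microplate reader.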

BaF3-FL-EGFR-Del19 = test: Cell growth (Cell Titer-Glo viability), BaF3-FL-EGFR-Del19; type: cell-based; details: Mus musculus; BaF3-FL-EGFR-Del19 (EGFR delE746_A750 mutant kinase), 72 hrs
Procedure, shortened: as §1

H3255 = test: Effect on cell cycle (PI staining, flow cytometer), H3255; type: cell-based; details: H3255 (EGFR L858R), 24 hours
Source text: In order to study which growth phase the cell was halted after administration of the drugs, five cell lines including non-small cell lung cancer cell line A549 (expressing wild-type EGFR gene), non-small cell lung cancer cell line H1975 (expressing EGFR L858R/T790M double mutant gene), non-small cell Lung cancer cell line PC-9 (expressing EGFR delE746_A750 mutant gene), non-small cell lung cancer cell line H3255 (expressing EGFR L858R mutant gene) and non-small cell lung cancer cell NCI-H3122 (expressing ALK gene) were tested for effect of Compound 1 on cell cycle distribution. Two cell lines including non-small cell lung cancer cell NCI-H3122 (expressing ALK gene) and non-small cell lung cancer cell H1975 (expressing EGFR L858R/T790M double mutant gene) were tested for effect of Compound 10 on cell cycle distribution. […]

A549 = test: Effect on cell apoptosis (Western Blot, PARP and Caspase 3 cleavage), A549; type: cell-based, human; details: A549 (wild-type EGFR), 24 hours
Source text: In order to confirm whether the death of cells is through apoptosis or necrosis after administration of drugs, non-small cell lung cancer cell A549 (expressing wild-type EGFR gene), non-small cell lung cancer cell line H1975 (expressing EGFR L858R/T790M double mutant gene), non-small cell lung cancer cell line H3255 (expressing EGFR L858R mutant gene), non-small cell lung cancer cell line H3122 (expressing ALK gene) cell line, and non-small cell lung cancer cell line PC-9 (expressing EGFR delE746_A750 mutant gene) were tested for effect of Compound 1 on cleavage of poly ADP-ribose polymerase PARP which is a DNA repair enzyme and Caspase 3, which were closely related to cell apoptosis. […] Western Blot was used to detect the effect of various concentrations of drugs at various time points on cleavage of poly ADP-ribose polymerase PARP which is a DNA repair enzyme and Caspase 3.

GI50 (BaF3-FL-EGFR-T790M-L858R) [nM]	GI50 (HCC827) [nM]	GI50 (BaF3-FL-EGFR-Del19) [nM]	Compound	effect on cell cycle distribution (H3255)	cleavage of PARP or Caspase 3 (apoptosis) (A549)
2			C=CC(=O)Nc1cc(Nc2ncc(Cl)c(Nc3ccccc3S(=O)(=O)C(C)C)n2)c(OC)cc1N1CCCN(C)CC1 [Compound 10, N-(5-(5-chloro-4-(2-(isopropylsulfonyl)phenylamino)pyrimidin-2-ylamino)-4-methoxy-2-(4-methyl-1,4-homopiperazin-1-yl)phenyl)acrylamide]		
	3	< 0.3	C=CC(=O)Nc1cc(Nc2ncc(Cl)c(Nc3ccccc3S(=O)(=O)C(C)C)n2)c(OC)cc1N1CCN(CC)CC1 [Compound 1, N-(5-(5-chloro-4-(2-(isopropylsulfonyl)phenylamino)pyrimidin-2-ylamino)-2-(4-ethylpiperazin-1-yl)-4-methoxyphenyl)acrylamide]	halt the cells in G0-G1 phase	not observed
